From patent US10729695B2, “Amino, amido and heterocyclic compounds as modulators of RAGE activity and uses thereof” (The Research Foundation for the State University of New York, priority 2013, dated 2020)

Assays:
[1] = target: RAGE tail (ctRAGE) binding to mDial (Homo sapiens (Human), UniProt Q15109); assay: Primary screen: binding of GFP RAGE tail to mDial at one concentration (10 uM); settings: 10 μM compound
Description: Primary screening was a two-step process in which compounds were first tested in a high throughput assay at one concentration (10 uM). Compounds that reduced binding of RAGE tail (ctRAGE) by at least 50% were then selected and subjected to 4-point dose response (10 uM, 1 uM, 0.1 uM and 0.01 uM) (FIGS. 1, 4, and 5).
Step 1. Add 50 μl anti-mDial (1:160 dilution in 0.1M NaHCO3 pH 9.6)/well. Incubate overnight at 4° C.
Step 2. Use the plate washer to aspirate anti-mDial and wash plates 4× with PBS 100 μl per well per wash.
Step 3. Add 180 μl 3% BSA in 1×PBS. Incubate for 1.5 hrs at room temperature
Step 4. Use the plate washer to aspirate the blocking solution and wash 5× with PBS 300 μl per well.
Step 5. Add 50 μl of mDial containing lysate (85 μg) and incubate at RT for 3 hours.
Step 6. Aspirate the lysate and wash the plate 5× (100 μl) on the plate washer.
Step 7. Add 25 μl PBS to the wells.
Step 8. Add 0.5 μL compound per well.
Step 9. Add 24.5 μL GFP RAGE tail (125 nM) into each well for 2 hrs at room temperature.
Step 10. Aspirate and wash 5× with PBS (100 μL) on the plate washer.
Step 11. Add 100 ul PBS in each well.
Step 12. Detection: Read on fluorescence plate reader excitation 435 nm and 485 nm emission
Compounds that blocked the binding of RAGE tail to mDial by 50% or more were subjected to 4 point dose response: 10 μM, 1 μM, 0.1 μM and 0.01 μM.

[2] = target: RAGE tail (Homo sapiens (Human), UniProt Q15109); assay: RAGE tail fluorescence titration (Kd determination); settings: binding to RAGE tail
Description: Binding affinities of small molecules for either CT-RAGE or FH1 are determined by performing fluorescence titrations to generate binding isotherms and standard SPR experiments.
A number of representative amino and amido compounds of this invention were or can be tested for their inhibitory activity.
(§1) Fluorescence quenching was used to determine binding.
A number of representative heterocylic compounds of this invention were or can be tested for their inhibitory activity.
as §1, §1

[3] = tested on: delayed type hypersensitivity (DTH) mediated inflammation in mice; assay: In vivo model of delayed type hypersensitivity (DTH), paw inflammation score; parameters: species or system CF-1 mice; settings: 5 mg/kg intraperitoneal, four doses; for Inflammation Score Compound ± SEM: paw scored 16 hrs after mBSA, scale 1-5, n=5 mice/group; for reduction in inflammation score in the paw compared to vehicle: vs DMSO vehicle
Description: Effects of CB Compounds 1-14 on an in vivo model of delayed type hypersensitivity (DTH). Female CF-1 mice were purchased from the Jackson Laboratories (Bar Harbor Me.) and after a period of at least 3 days acclimation in the animal facility, mice were sensitized over the left inguinal lymph node with an emulsion (0.1 ml) containing methylated bovine serum albumin (mBSA, Sigma, 25 mg/ml), NaCl (0.9%), dextran 5-40×10^6 MW; 50 mg/ml (Sigma), and Freunds' incomplete adjuvant (50%). On day 19 and 20 after sensitization, mice received an intraperitoneal dose of one of CB compounds 1-14 at 5 mg/kg/body weight mouse for a total of four doses. Control animals received equal volumes of compound diluent, DMSO. Immediately following the final compound injection (4th dose), mBSA (0.4 mg/ml; 0.050 ml) was injected into the left plantar hind paw. The paw was scored 16 hrs later by 2 investigators naive to the experimental condition and according to the following criteria: 1=absence of any inflammation; 2=slight rubor and edema; 3=moderate rubor and edema with skin wrinkles; 4=severe rubor and edema without skin wrinkles and 5=severe rubor and edema with toe spreading. See also Hofmann et al. (1999, Cell 97:889-901), the entire content of which is incorporated herein in its entirety. In these experiments, n=5 mice/group.

[4] = tested on: primary murine aortic smooth muscle cells; assay: Murine smooth muscle cell migration (scratch wound, CML AGE); format: cell-based, C57BL/6 mice; settings: 1 μM pre-treatment 1.5 hours, CML AGE 100 μg/ml, 7 hrs
Description: Effects of CB-1 to CB-14 on Murine Smooth Muscle Cell Migration. Primary murine aortic smooth muscles retrieved from wild type C57BL/6 mice were grown to 90% confluency in medium containing 10% fetal bovine serum. Cells were serum starved for 16 hrs during which time fetal bovine serum was replaced with 0.1% bovine serum albumin. Following this period of serum starvation, cells were pre-treated for 1.5 hours with the indicated Chembridge library hit denoted #1-14 at a concentration of 1 μM. At the end of that time, compounds were removed and cell monolayers were vertically scratched with a pipet tip to create a “wound” and then RAGE ligand carboxy methyl lysine human serum albumin (CML AGE), 100 μg/ml, was added for 7 hrs. Photographs of the monolayer were taken at time 0 (time of scratch/CML AGE) and at 7 hrs. The ingrowth of the cells was then noted and % area ingrowth was calculated comparing ingrowth at baseline to that at 7 hrs. N=triplicate experiments. * indicates p<0.05

[5] = tested on: primary human aortic smooth muscle cells; assay: Human smooth muscle cell migration (scratch wound, CML AGE); format: cell-based; settings: 1 μM pre-treatment 1.5 hours, CML AGE 100 μg/ml, 7 hrs
Description: Effects of CB-1 to CB-14 on Human Smooth Muscle Cell Migration. Primary human aortic smooth muscles were purchased from Lonza and were grown to 90% confluency in medium containing 10% fetal bovine serum. Cells were serum starved for 16 hrs during which time fetal bovine serum was replaced with 0.1% bovine serum albumin. Following this period of serum starvation, cells were pre-treated for 1.5 hours with the indicated Chembridge library hit denoted #1-14 at a concentration of 1 μM. At the end of that time, compounds were removed and cell monolayers were vertically scratched with a pipet tip to create a “wound” and then RAGE ligand carboxy methyl lysine human serum albumin (CML AGE), 100 μg/ml, was added for 7 hrs. Photographs of the monolayer were taken at time 0 (time of scratch/CML AGE) and at 7 hrs. The ingrowth of the cells was then noted and % area ingrowth was calculated comparing ingrowth at baseline to that at 7 hrs. N=triplicate experiments. * indicates p<0.05 (FIG. 8)

Chain of RAGE tail (ctRAGE) binding to mDial (Q15109 364-404): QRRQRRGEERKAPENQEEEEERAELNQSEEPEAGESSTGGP
Chain of RAGE tail (Q15109 364-404): as above

Structure (SMILES): OC(COc1cccc2ccccc12)Cn1cnc2ccccc21 (centres unmarked) [CD-16]
- inhibition at 10 µM [1]: 69%

Structure (SMILES): Cc1c(Cl)cccc1NC(=O)CNC(=O)c1ccccc1F [CB-13]
- Kd [2]: 123 ± 1 nM
- Inflammation Score Compound ± SEM [3]: 3.4 ± 0.55/3.4 ± 0.55
- RAGE ligand CML AGE-mediated ingrowth (migration) [4]: prevent RAGE ligand CML AGE-mediated ingrowth (migration)
- RAGE ligand CML AGE-mediated ingrowth (migration) [5]: prevent RAGE ligand CML AGE-mediated ingrowth (migration)

Structure (SMILES): Cc1cc2n(c1)CCn1c(C)ccc1-2 [CB-11]
- Kd [2]: 1.2 ± 0.5 nM
- Inflammation Score Compound ± SEM [3]: 3.2 ± 0.45/3.4 ± 0.55
- RAGE ligand CML AGE-mediated ingrowth (migration) [4]: prevent RAGE ligand CML AGE-mediated ingrowth (migration)
- RAGE ligand CML AGE-mediated ingrowth (migration) [5]: prevent RAGE ligand CML AGE-mediated ingrowth (migration)

Structure (SMILES): CC1=NN(c2nc3ccccc3s2)C(=O)C1CCC(C)C (centres unmarked) [CD-20]
- inhibition at 10 µM [1]: 48%

Structure (SMILES): OC(Cn1ccc2ccccc21)Cn1cnc2ccccc21 (centres unmarked) [CB-4]
- Kd [2]: 2 ± 1 nM
- Inflammation Score Compound ± SEM [3]: 3.0 ± 0.71/3.4 ± 0.55
- RAGE ligand CML AGE-mediated ingrowth (migration) [4]: prevent RAGE ligand CML AGE-mediated ingrowth (migration)
- RAGE ligand CML AGE-mediated ingrowth (migration) [5]: prevent RAGE ligand CML AGE-mediated ingrowth (migration)

Structure (SMILES): COC(=O)c1cc(OC)c(OC)cc1NC(=O)C1Oc2ccccc2OC1C (centres unmarked) [CB-8]
- Kd [2]: 2 ± 0.5 nM
- Inflammation Score Compound ± SEM [3]: 3.4 ± 0.55/3.6 ± 0.55
- RAGE ligand CML AGE-mediated ingrowth (migration) [4]: prevent RAGE ligand CML AGE-mediated ingrowth (migration)
- RAGE ligand CML AGE-mediated ingrowth (migration) [5]: prevent RAGE ligand CML AGE-mediated ingrowth (migration)

Structure (SMILES): OC(COc1ccccc1)Cn1cnc2ccccc21 (centres unmarked) [CD-28]
- inhibition at 10 µM [1]: 37%

Structure (SMILES): COc1cc(SC)ccc1C(=O)Nc1cccc(C)n1 [CB-1]
- Kd [2]: 4 ± 1 nM
- Inflammation Score Compound ± SEM [3]: 3.4 ± 0.55/3.4 ± 0.55
- RAGE ligand CML AGE-mediated ingrowth (migration) [4]: no inhibitory effect
- RAGE ligand CML AGE-mediated ingrowth (migration) [5]: no inhibitory effect

Structure (SMILES): COc1ccccc1-c1cc(C(F)(F)F)nc(N2CCOCC2)n1 [CB-7]
- Kd [2]: 0.55 ± 0.05 nM
- Inflammation Score Compound ± SEM [3]: 3.4 ± 0.55/3.6 ± 0.55
- RAGE ligand CML AGE-mediated ingrowth (migration) [4]: prevent RAGE ligand CML AGE-mediated ingrowth (migration)
- RAGE ligand CML AGE-mediated ingrowth (migration) [5]: prevent RAGE ligand CML AGE-mediated ingrowth (migration)

Structure (SMILES): N#Cc1ccc(OCC(O)Cn2cnc3ccccc32)cc1 (centres unmarked) [CD-8]
- inhibition at 10 µM [1]: 27%

Structure (SMILES): COc1ccccc1-c1cc(C(F)(F)F)nc(NC2CCCCC2)n1 [CD-21]
- inhibition at 10 µM [1]: 18%

Structure (SMILES): CN(Cc1ccccc1)CC(O)Cn1cnc2ccccc21 (centres unmarked) [CD-7]
- inhibition at 10 µM [1]: 31%

Structure (SMILES): Cc1nccn1CC(O)Cn1c2ccccc2c2ccccc21 (centres unmarked) [CD-29]
- Kd [2]: 78 nM

Structure (SMILES): CC(=O)Nc1ccc(C(=O)Nc2nccs2)cc1 [CD-1]
- inhibition at 10 µM [1]: 31%

Structure (SMILES): Cc1ccc(S(=O)(=O)N(C)C(F)F)cc1 [CB-9]
- Kd [2]: 17300 ± 500 nM
- Inflammation Score Compound ± SEM [3]: 3.6 ± 0.55/3.6 ± 0.55
- RAGE ligand CML AGE-mediated ingrowth (migration) [4]: prevent RAGE ligand CML AGE-mediated ingrowth (migration)
- RAGE ligand CML AGE-mediated ingrowth (migration) [5]: prevent RAGE ligand CML AGE-mediated ingrowth (migration)

Structure (SMILES): Oc1ccc(NCc2ccc(Br)cc2)cc1 [CB-14]
- Kd [2]: 1.4 ± 0.3 nM
- Inflammation Score Compound ± SEM [3]: 3.2 ± 0.45/3.4 ± 0.55
- RAGE ligand CML AGE-mediated ingrowth (migration) [4]: prevent RAGE ligand CML AGE-mediated ingrowth (migration)
- RAGE ligand CML AGE-mediated ingrowth (migration) [5]: prevent RAGE ligand CML AGE-mediated ingrowth (migration)

Structure (SMILES): OC(Cn1ccnc1)Cn1c2ccccc2c2ccccc21 (centres unmarked) [CD-4]
- Kd [2]: 75 nM

Structure (SMILES): Oc1cccc(Nc2nc(-c3ccc(F)cc3F)cs2)c1 [CB-5]
- Inflammation Score Compound ± SEM [3]: 3.6 ± 0.55/3.4 ± 0.55
- RAGE ligand CML AGE-mediated ingrowth (migration) [4]: prevent RAGE ligand CML AGE-mediated ingrowth (migration)
- RAGE ligand CML AGE-mediated ingrowth (migration) [5]: prevent RAGE ligand CML AGE-mediated ingrowth (migration)

Structure (SMILES): COC(=O)c1cc(-c2ccc(NC(C)=O)cc2)nc2ccccc12 [CB-12]
- Kd [2]: > 100000 nM
- Inflammation Score Compound ± SEM [3]: 2.4 ± 0.55/3.4 ± 0.55
- reduction in inflammation score in the paw compared to vehicle [3]: statistically significant reduction in inflammation score
- RAGE ligand CML AGE-mediated ingrowth (migration) [4]: prevent RAGE ligand CML AGE-mediated ingrowth (migration)
- RAGE ligand CML AGE-mediated ingrowth (migration) [5]: prevent RAGE ligand CML AGE-mediated ingrowth (migration)

Structure (SMILES): Cn1c(=O)n(CC(O)Cn2c3ccccc3c3ccccc32)c2ccccc21 (centres unmarked) [CD-6]
- Kd [2]: 4 nM

Structure (SMILES): C=CCOc1ccc2c(C(F)(F)F)cc(=O)oc2c1 [CB-2]
- Kd [2]: 6.5 ± 1 nM
- Inflammation Score Compound ± SEM [3]: 3.2 ± 0.45/3.4 ± 0.55
- RAGE ligand CML AGE-mediated ingrowth (migration) [4]: prevent RAGE ligand CML AGE-mediated ingrowth (migration)
- RAGE ligand CML AGE-mediated ingrowth (migration) [5]: prevent RAGE ligand CML AGE-mediated ingrowth (migration)

Structure (SMILES): COc1cc(NC(C)=O)c(Cl)cc1C(=O)Nc1nccs1 [CB-6]
- Inflammation Score Compound ± SEM [3]: 3.0 ± 0.71/3.6 ± 0.55
- RAGE ligand CML AGE-mediated ingrowth (migration) [4]: prevent RAGE ligand CML AGE-mediated ingrowth (migration)
- RAGE ligand CML AGE-mediated ingrowth (migration) [5]: prevent RAGE ligand CML AGE-mediated ingrowth (migration)

Structure (SMILES): CC1=NN(c2nc3ccccc3[nH]2)C(=O)C1CCC(C)C (centres unmarked) [CB-10]
- Inflammation Score Compound ± SEM [3]: 3.2 ± 0.84/3.6 ± 0.55
- RAGE ligand CML AGE-mediated ingrowth (migration) [4]: prevent RAGE ligand CML AGE-mediated ingrowth (migration)
- RAGE ligand CML AGE-mediated ingrowth (migration) [5]: prevent RAGE ligand CML AGE-mediated ingrowth (migration)

Structure (SMILES): Cc1nc2ccccc2n1CC(O)Cn1c2ccccc2c2ccccc21 (centres unmarked) [CB-3]
- Kd [2]: 18 ± 1 nM
- Inflammation Score Compound ± SEM [3]: 2.2 ± 0.45/3.4 ± 0.55
- reduction in inflammation score in the paw compared to vehicle [3]: statistically significant reduction in inflammation score
- RAGE ligand CML AGE-mediated ingrowth (migration) [4]: prevent RAGE ligand CML AGE-mediated ingrowth (migration)
- RAGE ligand CML AGE-mediated ingrowth (migration) [5]: prevent RAGE ligand CML AGE-mediated ingrowth (migration)
